Measured values taken from US20070128217A1 (priority 2003, published 2007).

Legend:
[1] = system: antibodies in sera from SARS patients (sera 1a, 1b, 2, 6, 37, 62, London, SARS-yellow, SARS-green); format: binding, human; parameters: Binding of serum 6 to linear peptides of protein X1 of SARS-CoV Urbani / Binding of serum 37 to linear peptides of protein X1 of SARS-CoV Urbani / Binding of serum 6 to looped/cyclic peptide (PEPSCAN-ELISA) / Binding of serum 37 to looped/cyclic peptide (PEPSCAN-ELISA) / Binding of serum 37 to looped/cyclic peptides of protein X1 of SARS-CoV Urbani / Binding of serum 6 to linear peptides of protein X2 / Binding of serum 37 to linear peptides of protein X2 / Binding of serum 37 to looped/cyclic peptides of protein X2 of SARS-CoV Urbani / Binding of serum 6 to linear peptides of protein M of SARS-CoV Urbani / Binding of serum 37 to linear peptides of protein M of SARS-CoV Urbani / Binding of serum 6 to looped/cyclic peptides of protein M of SARS-CoV Urbani / Binding of serum 37 to looped/cyclic peptides of protein M of SARS-CoV Urbani / Binding of serum 6 to linear peptides of protein X3 of SARS-CoV Urbani / Binding of serum 37 to linear peptides of protein X3 of SARS-CoV Urbani / Binding of serum 37 to looped/cyclic peptides of protein X3 of SARS-CoV Urbani / Binding of serum 6 to linear peptides of protein X4 of SARS-CoV Urbani / Binding of serum 37 to linear peptides of protein X4 of SARS-CoV Urbani / Binding of serum 37 to looped/cyclic peptides of protein X4 of SARS-CoV Urbani / Binding of serum 6 to linear peptides of protein X5 of SARS-CoV Urbani / Binding of serum 37 to linear peptides of protein X5 of SARS-CoV Urbani / Binding of serum 37 to looped/cyclic peptides of protein X5 of SARS-CoV Urbani / Binding of serum 6 to linear peptides of protein N of SARS-CoV Urbani / Binding of serum 37 to linear peptides of protein N of SARS-CoV Urbani / Binding of serum 6 to linear peptide (PEPSCAN-ELISA) / Binding of serum 1a to looped/cyclic peptides of protein N of SARS-CoV Urbani / Binding of serum 1b to looped/cyclic peptides of protein N of SARS-CoV Urbani / Binding of serum 2 to looped/cyclic peptides of protein N of SARS-CoV Urbani / Binding of serum 6 to looped/cyclic peptides of protein N of SARS-CoV Urbani / Binding of serum 37 to looped/cyclic peptides of protein N of SARS-CoV Urbani / Binding of serum 62 to looped/cyclic peptides of protein N of SARS-CoV Urbani / Binding of serum London to looped/cyclic peptides of protein N of SARS-CoV Urbani / Binding of serum SARS-green to looped/cyclic peptides of protein N of SARS-CoV Urbani: unit not given here
[2] = system: control sera (pooled serum of ten healthy LUMC hospital workers; commercial negative donor pooled serum from the Dutch bloodbank); format: binding, human; parameters: Binding of Control serum LUMC to linear peptides / Binding of Control serum Blood-bank to linear peptides / Binding of Control serum LUMC to looped peptides / Binding of Control Serum Blood-Bank to Looped peptides / Binding of Control serum LUMC to linear peptides of the protein M of SARS-CoV Urbani / Binding of Control serum Blood-bank to linear peptides of the protein M of SARS-CoV Urbani / Binding of Control serum LUMC to looped peptides of the protein M of SARS-CoV Urbani / Binding of Control Serum Blood-Bank to Looped peptides of the protein M of SARS-CoV Urbani: unit not given here
[3] = system: rabbit serum obtained by immunizing a rabbit with the SARS-CoV strain Frankfurt 1; format: binding; parameters: Binding of a rabbit serum to linear peptides / Binding of a rabbit serum to looped peptides / Rabbit serum linear peptides / Rabbit serum looped peptides / Binding of a rabbit serum to linear peptides of protein N of SARS-CoV Urbani (Rabbit serum linear peptides) / Binding of a rabbit serum to looped/cyclic peptides of protein N of SARS-CoV Urbani (Rabbit serum looped peptides): unit not given here

SPLFLIVAALVFLIL
Binding of serum 1a to linear peptides of protein X4 of SARS-CoV Urbani [1]: 0.6
Binding of serum 1a to looped/cyclic peptides of protein X4 of SARS-CoV Urbani [1]: 0.6
Binding of serum 1b to linear peptides of protein X4 of SARS-CoV Urbani [1]: 0.2
Binding of serum 1b to looped/cyclic peptides of protein X4 of SARS-CoV Urbani [1]: 0.4
Binding of serum 2 to linear peptides of protein X4 of SARS-CoV Urbani [1]: 0.5
Binding of serum 2 to looped/cyclic peptides of protein X4 of SARS-CoV Urbani [1]: 0.7
Binding of serum 6 to linear peptides of protein X4 of SARS-CoV Urbani [1]: 0.2
Binding of serum 6 to looped/cyclic peptides of protein X4 of SARS-CoV Urbani [1]: 0.3
Binding of serum 37 to linear peptides of protein X4 of SARS-CoV Urbani [1]: 0.6
Binding of serum 37 to looped/cyclic peptides of protein X4 of SARS-CoV Urbani [1]: 0.7
Binding of serum 62 to linear peptides of protein X4 of SARS-CoV Urbani [1]: 0.6
Binding of serum 62 to looped/cyclic peptides of protein X4 of SARS-CoV Urbani [1]: 0.2
Binding of serum London to linear peptides of protein X4 of SARS-CoV Urbani [1]: 0.6
Binding of serum London to looped/cyclic peptides of protein X4 of SARS-CoV Urbani [1]: 0.4
Binding of serum SARS-green to linear peptides of protein X4 of SARS-CoV Urbani [1]: 0.5
Binding of serum SARS-green to looped/cyclic peptides of protein X4 of SARS-CoV Urbani [1]: 0.6
Binding of serum SARS-yellow to linear peptides of protein X4 of SARS-CoV Urbani [1]: 0.3
Binding of serum SARS-yellow to looped/cyclic peptides of protein X4 of SARS-CoV Urbani [1]: 0.3
Binding of Control Serum Blood-Bank to Looped peptides [2]: 0.3
Binding of Control serum Blood-bank to linear peptides [2]: 0.4
Binding of Control serum LUMC to linear peptides [2]: 0.3
Binding of Control serum LUMC to looped peptides [2]: 0.5
Rabbit serum linear peptides [3]: 0.5
Rabbit serum looped peptides [3]: 0.8

RGNTYSTAWLCALGK
Binding of serum 1a to linear peptides of protein X5 of SARS-CoV Urbani [1]: 0.9
Binding of serum 1a to looped/cyclic peptides of protein X5 of SARS-CoV Urbani [1]: 0.4
Binding of serum 1b to linear peptides of protein X5 of SARS-CoV Urbani [1]: 0.6
Binding of serum 1b to looped/cyclic peptides of protein X5 of SARS-CoV Urbani [1]: 0.3
Binding of serum 2 to linear peptides of protein X5 of SARS-CoV Urbani [1]: 0.9
Binding of serum 2 to looped/cyclic peptides of protein X5 of SARS-CoV Urbani [1]: 0.6
Binding of serum 6 to linear peptides of protein X5 of SARS-CoV Urbani [1]: 0.7
Binding of serum 6 to looped/cyclic peptides of protein X5 of SARS-CoV Urbani [1]: 0.9
Binding of serum 37 to linear peptides of protein X5 of SARS-CoV Urbani [1]: 0.8
Binding of serum 37 to looped/cyclic peptides of protein X5 of SARS-CoV Urbani [1]: 0.5
Binding of serum 62 to linear peptides of protein X5 of SARS-CoV Urbani [1]: 0.8
Binding of serum 62 to looped/cyclic peptides of protein X5 of SARS-CoV Urbani [1]: 0.7
Binding of serum London to linear peptides of protein X5 of SARS-CoV Urbani [1]: 0.8
Binding of serum London to looped/cyclic peptides of protein X5 of SARS-CoV Urbani [1]: 1.4
Binding of serum SARS-green to linear peptides of protein X5 of SARS-CoV Urbani [1]: 0.6
Binding of serum SARS-green to looped/cyclic peptides of protein X5 of SARS-CoV Urbani [1]: 0.3
Binding of serum SARS-yellow to linear peptides of protein X5 of SARS-CoV Urbani [1]: 0.3
Binding of serum SARS-yellow to looped/cyclic peptides of protein X5 of SARS-CoV Urbani [1]: 0.5
Binding of Control Serum Blood-Bank to Looped peptides [2]: 0.4
Binding of Control serum Blood-bank to linear peptides [2]: 1.0
Binding of Control serum LUMC to linear peptides [2]: 0.6
Binding of Control serum LUMC to looped peptides [2]: 0.6
Rabbit serum linear peptides [3]: 1.3
Rabbit serum looped peptides [3]: 0.8
